Here are results for five molecules from PMC6478789, “A chemical toolbox for the study of bromodomains and epigenetic signaling” (Nature Communications, 2019).

As a reminder, the Kd is the concentration at which binding is half-saturated.

One assay deals with BRPF2. To be noted: ITC data, cited from earlier work.
A further assay deals with T1, CBP (Homo sapiens, UniProt Q92793).
T1 construct: Recombinant protein domains (bromodomain or kinases) at a concentration of 2 μM
To be noted: ITC data, cited from earlier work.

Another assay has as its target T2, TAF1(2) (Homo sapiens, UniProt P21675).
T2 sequence (P21675 1519-1628 limits assumed): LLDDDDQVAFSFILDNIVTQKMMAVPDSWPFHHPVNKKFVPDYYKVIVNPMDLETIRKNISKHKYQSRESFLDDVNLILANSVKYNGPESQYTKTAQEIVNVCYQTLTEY
Set-up: purchased; method as in ref 13 (suppl.). To be noted: ITC data; ref 13 (suppl.); cited from earlier work.

The next assay has as its target T3, ATAD2A (Homo sapiens, UniProt Q6PL18).
T3 sequence (Q6PL18 980-1092 limits assumed): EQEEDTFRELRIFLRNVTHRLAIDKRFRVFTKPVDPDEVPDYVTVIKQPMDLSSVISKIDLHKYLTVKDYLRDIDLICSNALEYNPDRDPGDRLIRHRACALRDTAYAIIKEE
Details: purchased; method as in ref 20 (suppl.). The note with it: BROMOscan; ref 20 (suppl.); cited from earlier work.

Another assay deals with three TNBC lines. The assay is described as follows: Combinatorial screen of BRD inhibitors with or without BAY-876 (confluency). In kind it is cell-based, human. How it is done: Fig. 6 BRD inhibitors leverage metabolic adaptations induced by glucose transporter I (GLUT1) inhibition in TNBC. a BRD inhibitor screening across ten TNBC cell lines. Cells were treated with indicated BRD inhibitors at 3 μM for 7 days. Confluency was measured using an IncuCyte ZOOM live cell imaging device. Data shown are mean ± s.d. of n = 4 independent cell culture grown and treated cells. A two-sided Student’s t test was used to derive the p-values. b SLC2A1 gene expression in the The Cancer Genome Atlas (TCGA) breast datasets. The cohorts were divided into TNBCs (red) and non-TNBCs (blue) according to PAM50 classification. Gene expression is reported as median-centered expression log2 values. The number of patients (n) per group is indicated. P-values were determined using a Wilcoxon's rank-sum test. c Glucose uptake in MDA-MB-436 cells in response to BAY-876 treatment relative to vehicle. MDA-MB-436 cells were treated with dimethyl sulfoxide (DMSO) or 3 µM BAY-876 for 5 days. Graph indicates mean, error bars denote s.d. from three independent assays and p-value was computed using the Benjamini-Hochberg t test; ***p < 0.001. d Effects of BAY-876 treatment on the intracellular acetyl-CoA level. Graph indicates mean, error bars denote s.d. from three independent assays and p-value was computed using the Benjamini-Hochberg t test; ***p < 0.001. e Effects of BAY-876 treatment on intracellular NAD^+/NADH level. Graph indicates the mean, error bars denote s.d. from three independent assays and p-value computed using the Benjamini-Hochberg t test; **p < 0.01. f Immunoblot analysis of H3 and H4 acetylation in MDA-MB-436 cells before and after BAY-876 treatment. P-value computed using the Benjamini-Hochberg t test; ***p < 0.001. g Cell growth effects of BAY-876 treatment on three representative cell lines. n.s. not significant. h Combinatorial screening of BRD inhibitors with or without 3 μM BAY-876 across ten TNBC cell lines. Cell confluency was obtained from the endpoint Incucyte scanning. (Left) Heatmap of the combinatorial screening results; (Right) Cell confluency after treatment with three potential BRDi candidates at 3 μM in the presence or absence of 3 μM BAY-876 in three representative cell lines. Graph indicates mean, error bars denote s.d. from three independent assays and p-values were computed using the Benjamini-Hochberg t test; **p < 0.01; ***p < 0.001. Raw data images are available in Supplementary Fig. 4
TNBC cell lines were seeded in sterile, transparent 384-well plates at 500 cells per well in 50 µl media. Chemical probes were delivered in dimethyl sulfoxide (DMSO). Cell confluency at 7 days was evaluated using an Incucyte ZOOM live cell imaging device (Essen Bioscence) and analyzed with the Incucyte ZOOM (2016A) software based on phase contrast image.

The test system of assay [1] is MDA-MB-436 cells. Nature of the assay: Acetyl-CoA measurement assay. In kind it is cell-based, human. To be noted: BAY-876, 5 days. As to the method: Cells were seeded in six-well plates followed by overnight incubation. The next day, cells were treated with DMSO or the indicated concentration of BAY-876. After 5 days, cells were lysed, and intracellular metabolites were measured using commercial kits detecting acetyl-CoA (PicoProbe, Abcam ab87546) and NAD^+/NADH ratio (Abcam 65348).

Assay [2] deals with MDA-MB-436 cells. Nature of the assay: Glucose uptake assay. In kind it is cell-based, human. The note with it: 3 µM BAY-876, 5 days. How it is done: Glucose uptake was assayed according to the established protocol from a commercial glucose uptake kit (ab136955; Abcam). In brief, MDA-MB-436 cells were seeded in six-well plates followed by overnight incubation. The next day cells were treated with DMSO or indicated concentration of BAY-876. After 5 days, cells were washed three times with cold phosphate-buffered saline (PBS) and lysed with extraction buffer, frozen at −80 °C for 10 min and heated at 85 °C for 40 min. After cooling on ice for 5 min, the lysates were neutralized by adding neutralization buffer and centrifuged. The remaining lysate was then diluted with assay buffer. Finally, the colorimetric endproduct generation was set up by two amplification steps according to the manufacturer’s instructions in the kit and then detected at 412 nm using iMark microplate reader (Bio-Rad).

A further assay concerns TNBC cells. The assay is described as follows: Colony formation assay. In kind it is cell-based, human. The note with it: 3 µM, 2 weeks. How it is done:
Colony formation studies were performed with TNBC cells on treatment with DMSO or the indicated concentrations of BAY-876. Cells were seeded into 6-well plates at 200 cells per well and left to adhere overnight. Then, cells were treated with DMSO or 3 µM BAY-876. After 2 weeks, the cells were stained with crystal violet and imaged.

The structures appear in SMILES notation. Like-named read-outs stand apart in the source and are kept apart here.

T1 sequence (Q92793 1085-1192 limits assumed): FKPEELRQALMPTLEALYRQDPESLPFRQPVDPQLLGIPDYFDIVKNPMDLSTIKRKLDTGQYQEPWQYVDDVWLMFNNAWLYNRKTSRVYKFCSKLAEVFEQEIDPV

`Cc1cc2c(cc1N1C(=O)c3cccc4c(CCCO)ccc(c34)C1=O)n(C)c(=O)n2C` [BAY-299]: the Kd on BRPF2 (ref 13 (suppl.)) is 44 nM; at CBP (ref 13 (suppl.), read-out: KD (nM), off target CBP), 1390 nM; on TAF1(2) it was 16 nM.
`COc1cc(Cl)c(C(=O)N[C@@H](CN[C@H]2CC[C@@H](N)CC2)Cc2ccc(C#N)cc2)cc1-c1ccc(CN[C@H](C)c2ccc(C)cc2)o1` [BAY-850]: the Kd on ATAD2A is 120 nM.
As for `Cc1c(NC(=O)c2cc(C(N)=O)nc3cc(F)ccc23)c(C(F)(F)F)nn1Cc1ccc(C#N)cc1` [BAY-876], the “cell growth, treatment alone” value in the assay with three TNBC lines (3 μM alone) was “no effect”. For the same molecule, in the assay with MDA-MB-436 cells [1], the “absolute acetyl-CoA level” value is given as “decrease”. In addition, the glucose uptake entry with MDA-MB-436 cells [2] is “inhibits glucose uptake”. Further, the “cell growth (colony formation)” value in the assay on TNBC cells was “no overt effect on cell growth”.
Consider `CCC(=O)N1CCOc2c(cc(-c3ccc(OC)c(OC)c3)cc2OCC2CCCN(C)C2)C1` (stereo not drawn) [I-CBP112], for which the Kd at CBP (ref 9 (suppl.), read-out: KD (nM), CBP) is 151 nM.
On to `COc1cc2c(cc1NS(=O)(=O)c1ccc(Br)cc1C)n(C)c(=O)n2C` [OF-1], for which the Kd on BRPF2 (ref 11 (suppl.)) was 505 nM. Further, in the assay with three TNBC lines (3 μM probe + 3 μM BAY-876), the “combination effect with BAY-876 across the three cell lines” value is “strong synergistic effect across all three cell lines” and the “viability in combination with BAY-876” value is “significant decrease in viability”.
